Data taken from the OPERA property sets (Mansouri et al. 2018).

Conditions: for log10 BCF / log10 biotransformation half-life (days): fish

With `Cc1ncc(COP(=O)(O)O)c(C=O)c1O.O` the melting point was 142 °C.
With `Oc1ccc(O)c(O)c1` the melting point was 140 °C.
`Clc1cc(Cl)c2oc3c(Cl)c(Cl)ccc3c2c1` gave a log10 vapour pressure (mmHg) of -7.48 and a melting point of 164 °C.
`Cc1cccc2c1CCCC2` gave a boiling point of 234 °C and a melting point of -23 °C.
Work on `CCCCCCCOO` yielded a melting point of 35.5 °C.
`Cn1ccccc1=O` gave a boiling point of 250 °C and a melting point of 31 °C.
For `CC1=CCCC(C)(C)C1/C=C/C(C)=C/C=C/C(C)=C/C=C/C=C(C)/C=C/C=C(C)/C=C/C1=C(C)CCCC1(C)C` (stereo not given), the melting point was 188 °C.
`ClC1=C(Cl)[C@]2(Cl)[C@H]3[C@H]([C@@H]4O[C@]4(Cl)[C@@H]3Cl)[C@@]1(Cl)C2(Cl)Cl` (mixture of isomers) showed a boiling point of 353 °C, a log10 Koa of 8.39 and a melting point of 144 °C.
`CNC(=O)ON=C(CSC)C(C)(C)C` gave a log10 vapour pressure (mmHg) of -3.77 and a melting point of 57 °C.
`CCC(C)=C(C)C` showed a boiling point of 97.5 °C, a log10 vapour pressure (mmHg) of 1.7 and a melting point of -118 °C.
Work on `N#CCCCOc1ccccc1` yielded a boiling point of 288 °C and a melting point of 45.5 °C.
Compound `O=C(C(Cl)(Cl)Cl)C(Cl)(Cl)Cl` has a boiling point of 203 °C and a melting point of -2 °C.
Compound `CC(C)CN(CC(C)C)CC(C)C` has a boiling point of 192 °C and a melting point of -21.8 °C.
For `CCCCOC(C)C`, the boiling point was 109 °C.
Compound `CCCCCCCCCCCCCCCCCCOC(C)=O` has a melting point of 34.5 °C.
With `c1ccc2scnc2c1` the boiling point was 231 °C, the melting point was 2 °C and the ready biodegradability was “not readily biodegradable”. It also gave a log10 BCF of 0.88 and a log10 biotransformation half-life (days) of -0.86.
`Cc1ccsc1` gave a boiling point of 116 °C, a log10 vapour pressure (mmHg) of 1.35 and a melting point of -69 °C. The ready biodegradability was “not readily biodegradable”, the log10 BCF was 0.72 and the log10 biotransformation half-life (days) was -1.27.
With `COc1cc(Cc2cnc(N)nc2N)cc(OC)c1OC` the melting point was 201 °C.
For `O=[N+]([O-])c1cccc(Cl)c1Cl`, the boiling point was 258 °C, the melting point was 61.5 °C and the ready biodegradability was “not readily biodegradable”. For the same compound, the log10 BCF was 2.16 and the log10 biotransformation half-life (days) was 0.54.
Compound `CCCC=CCO` has a boiling point of 157 °C.
Work on `CCCCCCCCCCCCC(C)=O` yielded a melting point of 33.5 °C.
Work on `O=C(c1ccccc1)C(O)c1ccccc1` (racemic) yielded a boiling point of 344 °C, a log10 vapour pressure (mmHg) of -5.28 and a melting point of 137 °C.
In the case of `C[N+](C)(C)OP(=O)([O-])OP(=O)(O)OC[C@H]1O[C@@H](n2ccc(N)nc2=O)[C@H](O)[C@@H]1O`, the ready biodegradability is reported as “readily biodegradable”.
For `CC1(C)C(C=C(Cl)Cl)C1C(=O)OCc1cccc(Oc2ccccc2)c1` (stereo not given), the log10 Koc (L/kg) was 4.8, the log10 vapour pressure (mmHg) was -7.66 and the melting point was 34 °C.
With `O=C(O)Cc1cccnc1` the melting point was 144 °C.
With `COc1cc2c(c3oc(=O)c4c(c13)CCOC4=O)C1C=COC1O2` (stereo not given) the melting point was 245 °C.
Work on `CC(C)(O)CCSc1ccc(S(N)(=O)=O)cc1` yielded a melting point of 140 °C.
With `CCCC(Cl)CCl` (stereo not given) the boiling point was 148 °C.
Work on `O=CF` yielded a boiling point of -26.5 °C, a log10 vapour pressure (mmHg) of 3.46 and a melting point of -142 °C.
Work on `CC1=CC(=O)C=C(C)C1=O` yielded a melting point of 72.5 °C.
In the case of `Fc1cc(F)c(F)nc1F`, the boiling point is reported as 102 °C.
Work on `CC(C)c1cccc2ccccc12` yielded a boiling point of 268 °C, a log10 vapour pressure (mmHg) of -2.22 and a melting point of -16 °C.
`CCOC(=O)C1=NN(c2ccc(Cl)cc2Cl)C(C)(C(=O)OCC)C1` (stereo not given) gave a log10 vapour pressure (mmHg) of -7.33 and a melting point of 51 °C.
In the case of `Cc1ccc(O)cc1O`, the boiling point is reported as 268 °C and the melting point is reported as 106 °C.
`Clc1cc2cccc(Cl)c2c(Cl)c1Cl` showed a log10 Koa of 8.65.
With `Brc1cc(Br)c(Br)cc1Br` the melting point was 182 °C, the log10 BCF was 3.59 and the log10 biotransformation half-life (days) was 1.35.
With `Cc1cc(O)c(C2CC3CCC2(C)C3(C)C)cc1C` (stereo not given) the melting point was 95 °C.
For `O=C(Nc1ccc(Br)cc1)c1c(O)cccc1O`, the melting point was 229 °C.
For `COc1c(F)c(F)cc(F)c1F`, the boiling point was 138 °C.
Work on `CN(C)c1ccc(O)cc1` yielded a melting point of 77 °C.
For `O=C1c2ccccc2C(=O)N1CCBr`, the melting point was 82.5 °C.
For `CCOC=O`, the boiling point was 54.4 °C, the log10 Henry constant (atm·m³/mol) was -3.41 and the log10 Koa was 2.19. For the same compound, the log10 vapour pressure (mmHg) was 2.39 and the melting point was -79.6 °C.
In the case of `Nc1ccc(-c2ccc(Cl)cc2)cc1`, the melting point is reported as 134 °C.
For `CC(C)OC(=O)C(O)(c1ccc(Cl)cc1)c1ccc(Cl)cc1`, the log10 vapour pressure (mmHg) was -6.74 and the melting point was 73 °C.
With `Cc1cccc(C)c1C(=O)O` the boiling point was 274 °C and the melting point was 116 °C.
`CN1CCCC1` showed a boiling point of 81 °C, a log10 Henry constant (atm·m³/mol) of -4.52 and a log10 Koa of 3.64. For the same compound, the log10 vapour pressure (mmHg) was 2.
With `Cc1cccs1` the boiling point was 113 °C, the log10 Henry constant (atm·m³/mol) was -2.62 and the log10 vapour pressure (mmHg) was 1.4. For the same compound, the melting point was -63.4 °C.
`CC(C)NC(=O)COC(=O)c1ccccc1` gave a melting point of 130 °C.
For `CCCCC/C=C\C/C=C\CCCCCCCC(=O)O`, the boiling point was 365 °C, the log10 vapour pressure (mmHg) was -6.06 and the melting point was -8.5 °C.
In the case of `C[C@]12C=CC(=O)C=C1[C@@H](F)C[C@@H]1[C@@H]2[C@@H](O)C[C@@]2(C)[C@H]1CC[C@]2(O)C(=O)CO`, the melting point is reported as 210 °C.
Compound `CC(Br)C(C)(Br)Br` (stereo not given) has a boiling point of 206 °C and a melting point of 1.8 °C.
With `O=C(OC(=O)C(F)(F)C(F)(F)C(F)(F)F)C(F)(F)C(F)(F)C(F)(F)F` the boiling point was 106 °C and the melting point was -43 °C.
`CCOc1cccc(N(CC)CC)c1` showed a boiling point of 286 °C.
With `C=CCC1(CC=C)C(=O)NC(=O)NC1=O` the melting point was 172 °C.
`Cc1ccccc1C(=O)c1ccccc1` showed a boiling point of 308 °C.
`CC(C)(C)c1ccc(O)c(N)c1` showed a melting point of 161 °C.
For `Nc1c(Br)cc(Br)c2c1C(=O)c1ccccc1C2=O`, the melting point was 221 °C.
`CCOC(=O)C=C(C)C(=O)OCC` showed a boiling point of 228 °C.
